Here are results for 19 compounds from patent publication US20220056019A1, “FARNESOID X RECEPTOR AGONISTS AND USES THEREOF” (Metacrine, Inc., priority 2018, published 2022).

Structures are written as SMILES. pEC50: −log10 of the molar value.

This assay addresses T1, hFXR (Homo sapiens, UniProt Q96RI1).
T1 construct: expressed in transfected cells; host or cells: CV-1 cells
T1 sequence (Q96RI1 1-486): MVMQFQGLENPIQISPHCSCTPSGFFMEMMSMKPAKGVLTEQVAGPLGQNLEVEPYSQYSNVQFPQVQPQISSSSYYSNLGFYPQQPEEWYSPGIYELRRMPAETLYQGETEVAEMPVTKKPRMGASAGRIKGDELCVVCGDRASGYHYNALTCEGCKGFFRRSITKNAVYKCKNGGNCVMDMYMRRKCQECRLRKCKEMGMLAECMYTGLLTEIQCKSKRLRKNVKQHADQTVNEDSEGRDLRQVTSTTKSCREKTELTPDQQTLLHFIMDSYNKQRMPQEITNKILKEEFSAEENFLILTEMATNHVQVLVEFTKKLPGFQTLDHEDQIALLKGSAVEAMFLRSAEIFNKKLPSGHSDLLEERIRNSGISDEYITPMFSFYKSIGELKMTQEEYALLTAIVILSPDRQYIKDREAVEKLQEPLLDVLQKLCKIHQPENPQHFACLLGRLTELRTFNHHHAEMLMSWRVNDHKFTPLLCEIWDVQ
T1 sequence (P19793 1-462 partner): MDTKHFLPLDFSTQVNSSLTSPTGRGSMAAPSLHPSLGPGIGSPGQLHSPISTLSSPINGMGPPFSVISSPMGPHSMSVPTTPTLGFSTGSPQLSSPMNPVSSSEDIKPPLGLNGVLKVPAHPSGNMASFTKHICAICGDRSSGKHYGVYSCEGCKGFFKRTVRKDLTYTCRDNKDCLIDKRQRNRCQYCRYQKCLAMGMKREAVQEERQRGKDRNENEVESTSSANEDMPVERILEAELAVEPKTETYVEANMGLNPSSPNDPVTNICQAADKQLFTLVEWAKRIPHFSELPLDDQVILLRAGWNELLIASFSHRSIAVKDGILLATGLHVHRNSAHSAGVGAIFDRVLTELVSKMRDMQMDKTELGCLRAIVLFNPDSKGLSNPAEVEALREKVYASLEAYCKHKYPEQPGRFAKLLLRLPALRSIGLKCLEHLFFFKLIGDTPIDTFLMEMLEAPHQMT
As to the kind of experiment: In Vitro FXR Assay (TK): TK-ECRE-luc reporter in transfected CV-1 cells. The assay is classed as cell-based. The note with it: 18 hrs incubation, luminescence. The method, boiled down: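 CV-1 cells in DMEM with 10% charcoal-stripped FBS were transiently co-transfected with hFXR, hRXR, TK-ECRE-luc reporter and pCMX-YFP plasmids over 18 h at 37 °C. Compounds serially diluted in DMSO were added for 18 h; cells were then lysed and luciferase luminescence measured.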
The compound `COc1ccc(C23CCC(CN(c4cc(-c5cnn(C(C)C(F)(F)F)c5)ccn4)C(=O)[C@H]4CC[C@H](OC(=O)N5CC(O)C5)CC4)(CC2)CC3)cc1C` (stereo partly drawn) [Compound 26.11, 4-(((4-(4-Methoxy-3-methylphenyl)bicyclo[2.2.2]octan-1-yl)methyl)(4-(1-(1,1,1-trifluoropropan-2-yl)-1H-pyrazol-4-yl)pyridin-2-yl)carbamoyl)cyclohexyl trans-3-hydroxyazetidine-1-carboxylate] had a pEC50 of at least 7.30.
The figure for `COc1ccc([C@H]2CC[C@H](CN(c3cccc(-c4cnn(C5CC5)c4)c3)C(=O)[C@H]3CC[C@H](C(C)O)CC3)CC2)cc1C` (stereo partly drawn) [Compound 21, trans-N-(3-(1-Cyclopropyl-1H-pyrazol-4-yl)phenyl)-4-(1-hydroxyethyl)-N-((trans-4-(4-methoxy-3-methylphenyl)cyclohexyl)methyl)cyclohexanecarboxamide] is at least 7.30; for `CCc1ncc(-c2ccnc(N(C[C@H]3CC[C@H](c4ccc(OC)c(C)c4)CC3)C(=O)[C@H]3CC[C@H](OC(=O)N4CC(O)C4)CC3)c2)s1` [Compound 2.42, trans-4-((4-(2-Ethylthiazol-5-yl)pyridin-2-yl)((trans-4-(4-methoxy-3-methylphenyl)cyclohexyl)methyl)carbamoyl)cyclohexyl 3-hydroxyazetidine-1-carboxylate] it is at least 7.30; for `COc1ccc(C23CCC(CN(c4cc(-c5cnn(C(C)C)c5)ccn4)C(=O)[C@H]4CC[C@H](OC(=O)N5CCN(C)CC5)CC4)(CC2)CC3)cc1C` [Compound 4.15, 4-((4-(1-Isopropyl-1H-pyrazol-4-yl)pyridin-2-yl)((4-(4-methoxy-3-methylphenyl)bicyclo [2.2.2]octan-1-yl)methyl)carbamoyl)cyclohexyl 4-methylpiperazine-trans-1-carboxylate] it is at least 7.30.
Compound `COc1ccc([C@H]2CC[C@H](CN(c3cc(-c4cnn(C(F)(F)F)c4)ccn3)C(=O)[C@H]3CC[C@H](OC(=O)NCC(C)(C)O)CC3)CC2)cc1C` [Compound 2.58, trans-4-((((trans)-4-(4-Methoxy-3-methylphenyl)cyclohexyl)methyl) (4-(1-(trifluoromethyl)-1H-pyrazol-4-yl)pyridin-2-yl)carbamoyl)cyclohexyl (2-hydroxy-2-methylpropyl)carbamate] had a pEC50 of 6.00 to 7.30.
Regarding `CCc1nc(-c2ccnc(N(C[C@H]3CC[C@H](c4ccc(OC)c(C)c4)CC3)C(=O)[C@H]3CC[C@H](OC(=O)N4CCN(C)CC4)CC3)c2)co1` [Compound 2.48, trans-4-((4-(2-Ethyloxazol-4-yl)pyridin-2-yl)((trans-4-(4-methoxy-3-methylphenyl)cyclohexyl)methyl)carbamoyl)cyclohexyl 4-methylpiperazine-1-carboxylate], the pEC50 is 6.00 to 7.30.
Compound `COc1ccc(C23CCC(CN(c4cc(-c5coc(C6CC6)n5)ccn4)C(=O)[C@H]4CC[C@H](NC(=O)CO)CC4)(CC2)CC3)cc1C` [Compound 9.11, (trans)-N-(4-(2-Cyclopropyloxazol-4-yl)pyridin-2-yl)-4-(2-hydroxyacetamido)-N-((4-(4-methoxy-3-methylphenyl)bicyclo[2.2.2]octan-1-yl)methyl)cyclohexanecarboxamide] gave a negative-log EC50 (pEC50) of at least 7.30.
With `COc1ccc(C23CCC(CN(c4cc(-c5cnn(C(C)C)c5)ccn4)C(=O)[C@H]4CC[C@H](OC(=O)N5CC(O)C5)CC4)(CC2)CC3)nc1C` [Compound 26.20, 4-((4-(1-Isopropyl-1H-pyrazol-4-yl)pyridin-2-yl)((4-(5-methoxy-6-methylpyridin-2-yl)bicyclo[2.2.2]octan-1-yl)methyl)carbamoyl)cyclohexyl trans-3-hydroxyazetidine-1-carboxylate], the pEC50 is at least 7.30.
In the case of `CCC1CN(C(=O)O[C@H]2CC[C@H](C(=O)N(CC34CCC(c5ccc(OC)c(C)c5)(CC3)CC4)c3cc(-c4cnn(C(C)C)c4)ccn3)CC2)C1` [Compound 4.54, 4-((4-(1-Isopropyl-1H-pyrazol-4-yl)pyridin-2-yl) ((4-(4-methoxy-3-methylphenyl)bicyclo [2.2.2]octan-1-yl)methyl)carbamoyl)cyclohexyl trans-3-ethylazetidine-1-carboxylate] it was at least 7.30; in that of `COc1ccc(C23CCC(CN(c4cc(-c5coc(C(C)C)n5)ccn4)C(=O)[C@H]4CC[C@H](OC(=O)N5CC(OCCO)C5)CC4)(CC2)CC3)cc1C` [Compound 23.05, 4-((4-(2-Isopropyloxazol-4-yl)2-yl)((4-(4-methoxy-3-methylphenyl)bicyclo[2.2.2]octan-1-yl)methyl)carbamoyl)(trans-cyclohexyl) 3-(2-hydroxyethoxy)azetidine-1-carboxylatepyridin-], at least 7.30.
The figure for `COc1ccc([C@H]2CC[C@H](CN(c3cccc(-c4cnn(C(C)C)c4)c3)C(=O)[C@H]3CC[C@H](NC(=O)COCCO)CC3)CC2)cc1C` [Compound 13.01, trans-4-(2-(2-Hydroxyethoxy)acetamido)-N-(3-(1-isopropyl-1H-pyrazol-4-yl)phenyl)-N-((trans-4-(4-methoxy-3-methylphenyl)cyclohexyl)meth-yl)cyclohexanecarboxamide] is 6.00 to 7.30.
Consider `CC(C)n1cc(-c2ccnc(N(CC34CCC(c5ccc(N(C)C)nc5)(CC3)CC4)C(=O)[C@H]3CC[C@H](OC(=O)N4CC(O)C4)CC3)c2)cn1` [Compound 4.57, 4-(((4-(6-(Dimethylamino)pyridin-3-yl)bicyclo[2.2.2]octan-1-yl)methyl)(4-(1-isopropyl-1H-pyrazol-4-yl)pyridin-2-yl)carbamoyl) (trans-cyclohexyl) 3-hydroxyazetidine-1-carboxylate], for which the pEC50 was at least 7.30.
In the case of `COc1ccc(C23CCC(CN(c4cc(-c5cnc(C6CC6)o5)ccn4)C(=O)[C@H]4CC[C@H](OC(=O)N5CC(O)C5)CC4)(CC2)CC3)cc1C` [Compound 4.24, 4-((4-(2-Cyclopropyloxazol-5-yl)pyridin-2-yl)((4-(4-methoxy-3-methylphenyl)bicyclo [2.2.2]octan-1-yl)methyl)carbamoyl) cyclohexyl 3-hydroxyazetidine-trans-1-carboxylate] it was at least 7.30.
Compound `COc1ccc(C23CCC(CN(c4ncc(F)c(-c5cnn(C(C)C)c5)c4F)C(=O)[C@H]4CC[C@H](OC(=O)N5CC(O)C5)CC4)(CC2)CC3)cc1C` [Compound 25.14, 4-((3,5-Difluoro-4-(1-isopropyl-1H-pyrazol-4-yl)pyridin-2-yl)((4-(4-methoxy-3-methylphenyl)bicyclo[2.2.2]octan-1-yl)methyl)carbamoyl)(trans-cyclohexyl) 3-hydroxyazetidine-1-carboxylate] showed a pEC50 of at least 7.30.
Compound `COc1ccc(C23CCC(CN(c4cc(-c5cnn(C(C)C)c5)ccn4)C(=O)[C@H]4CC[C@H](NC(=O)CO)CC4)(CC2)CC3)cc1C` [Compound 9.02, trans-4-(2-Hydroxyacetamido)-N-(4-(1-isopropyl-1H-pyrazol-4-yl)pyridin-2-yl)-N-((4-(4-methoxy-3-methylphenyl)bicyclo[2.2.2]octan-1-yl)methyl)cyclohexanecarboxamide] gave a pEC50 of at least 7.30.
In turn, `COc1ccc(C23CCC(CN(c4cc(-c5coc(C6CC6)n5)ccn4)C(=O)[C@H]4CC[C@H](OC(=O)N5CC(CO)C5)CC4)(CC2)CC3)cc1C` [Compound 4.31, 4-((4-(2-Cyclopropyloxazol-4-yl)pyridin-2-yl)((4-(4-methoxy-3-methylphenyl)bicyclo[2.2.2]octan-1-yl)methyl)carbamoyl)(trans-cyclohexyl) 3-(hydroxymethyl)azetidine-1-carboxylate] gave a negative-log EC50 (pEC50) of at least 7.30.
In the case of `COc1ccc([C@H]2CC[C@H](CN(c3cc(-c4coc(C5CC5)n4)ccn3)C(=O)[C@H]3CC[C@H](OC(=O)NC(C)C)CC3)CC2)cc1C` [Compound 2.46, trans-4-((4-(2-Cyclopropyloxazol-4-yl)pyridin-2-yl)((trans-4-(4-methoxy-3-methylphenyl)cyclohexyl)methyl)carbamoyl)cyclohexyl isopropylcarbamate] it was at least 7.30; in that of `COc1ccc(C23CCC(CN(c4cc(-c5cnn(C(C)C)c5)ccn4)C(=O)[C@H]4CC[C@H](NC(=O)C(C)(C)O)CC4)(CC2)CC3)cc1C` [Compound 9.03], at least 7.30; in that of `COc1ccc([C@H]2CC[C@H](CN(c3cccc(-c4cnn(C(C)C)c4)c3)C(=O)[C@H]3CC[C@H](CN)CC3)CC2)cc1C` [Compound 11, (trans)-4-(Aminomethyl)-N-(3-(1-isopropyl-1H-pyrazol-4-yl)phenyl)-N-(((trans)-4-(4-methoxy-3-methylphenyl)cyclohexyl)methyl)cyclohexanecarboxamide], 5.00 to 6.00.
